The record followed here is patent US7741520B2, “Sulfonanilide analogs as selective aromatase modulators (SAMs)” (The Ohio State University Research Foundation, priority 2006, dated 2010).

In data set [1] the test system is aromatase activity in SK-BR-3 breast cancer cells. Description: Aromatase tritiated water-release assay in SK-BR-3 cell lines (first compound set). In kind it is cell-based, human. As to conditions: SK-BR-3 cells, 24 h treatment; five concentrations, each in triplicate; read-out: IC50 (μM), suppression of aromatase activity in SK-BR-3 breast cancer cells. As for the experimental part:
Aromatase Tritiated Water-Release Assay in SK-BR-3 Cell Lines. SK-BR-3 cells were obtained from ATCC (Rockville, Md.). Cell cultures were maintained in phenol red-free custom media (MEM, Earle's salts, 1.5× amino acids, 2× nonessential amino acids, L-glutamine, 1.5× vitamins, Gibco BRL) supplemented with 10% fetal bovine serum (FBS), 2 mM L-glutamine, and 20 mg/L gentamycin. Measurement of aromatase enzyme activity was based on the tritium water release assay. 24 Cells in 100 mm Petri dish were treated with 0.1% DMSO (control), and inhibitors at the indicated concentrations. After 24 h, the media was changed and the cells were incubated with 100 nM [1â-3H]-androst-4-ene-3,17-dione ([…]) for 3 h. Subsequently, the reaction mixture was removed, and proteins were precipitated using 10% trichloroacetic acid at 42° C. for 20 min. After a brief centrifugation, the media was extracted three times with an equal amount of chloroform to extract unused substrate and further dextran-treated charcoal. After centrifugation, a 250-μL aliquot containing the product was counted in 5 mL of liquid scintillation mixture. Results were corrected for blanks and for the cell contents of culture flasks, and results were expressed as picomoles of 3H2O formed per hour incubation time per million live cells (pmol/h/10^6 cells). To determine the amount of cells in each flask, the cells were trypsinized and analyzed using the diphenylamine DNA assay adapted to a 96-well plate. (Natarajan N.; Shambaugh, G. E., 3rd; Elseth K. M.; Haines G. K.; Radosevich J. A. Adaptation of the diphenylamine (DPA) assay to a 96-well plate tissue culture format and comparison with the MTT assay. Biotechniques 1994, 17, 166-171; incorporated herein by reference). IC50 sigmoidal dose-response data were analyzed with Microsoft Excel and the Graphpad Prism (Version 3.0) program.

In data set [2] the test system is PGE2 production in MDA-MB-231 cells. Description: Enzyme immunoassay of PGE2 in MDA-MB-231 cells (COX-2 inhibitory activity). In kind it is cell-based, human. As to conditions: 25 μM, 24 h (FIG. 4). As for the experimental part: Enzyme Immunoassay of PGE2 in MDA-MB-231 Cells. MDA-MB-231 cells were obtained from ATCC (Rockville, Md.). Cell cultures were maintained in phenol red-free custom media (MEM, Earle's salts, 1.5× amino acids, 2× nonessential amino acids, L-glutamine, 1.5× vitamins, Gibco BRL) supplemented with 10% fetal bovine serum (FBS), 2 mM L-glutamine and 20 mg/L gentamycin. To study PGE2 synthesis in cell culture media, experiments were performed in […] Petri dishes. An aliquot of MDA-MB-231 cells (15×10^4 cells) were added to each dish and then incubated overnight to allow the cells to adhere to the dish. After that, cells were serum starved in defined media for 24 h. This step was followed by replacement of media with fresh media containing either vehicle (DMSO) or the indicated concentration of agents. After 24 h incubation at 37° C. the media were collected and the amount of PGE2 was determined by ELISA (Cayman Chemical) according to the protocol provided by the manufacturer. PGE2 concentration was normalized to total protein. Total proteins were extracted from adhered cells by 30 min treatment with 0.5 M NaOH at room temperature and shaking. Protein concentrations in these extracts were determined using a protein assay method (Bio-Rad Laboratories, Inc., Hercules, Calif.).

Data set [3] has as its target T1, aromatase activity in JAR choriocarcinoma placental cells (Homo sapiens, UniProt P11511).
T1 construct: JAR choriocarcinoma placental cells (which produce aromatase expression from promoter I.1 mediated by protein kinase C); host or cells: JAR
T1 sequence (P11511 1-503): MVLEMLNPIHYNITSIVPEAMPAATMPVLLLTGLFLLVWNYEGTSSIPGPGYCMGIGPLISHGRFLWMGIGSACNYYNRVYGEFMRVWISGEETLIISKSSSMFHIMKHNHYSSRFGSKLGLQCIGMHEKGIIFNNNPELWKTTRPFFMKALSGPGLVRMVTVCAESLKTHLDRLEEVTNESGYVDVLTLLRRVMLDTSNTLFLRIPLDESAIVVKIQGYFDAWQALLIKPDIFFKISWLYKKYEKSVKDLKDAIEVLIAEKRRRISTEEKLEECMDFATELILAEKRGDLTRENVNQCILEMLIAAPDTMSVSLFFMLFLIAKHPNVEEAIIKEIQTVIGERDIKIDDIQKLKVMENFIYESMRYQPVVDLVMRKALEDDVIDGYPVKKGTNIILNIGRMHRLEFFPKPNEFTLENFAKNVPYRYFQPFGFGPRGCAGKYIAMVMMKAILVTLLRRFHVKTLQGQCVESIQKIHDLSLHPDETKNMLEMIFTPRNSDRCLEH
Description: Tritiated water-release assay in JAR cells. In kind it is cell-based. As to conditions: for inhibition at 15 µM: 24 h, 15 μM (FIG. 11), read-out: decrease of aromatase activity in JAR cells. As for the experimental part: (§1) Cell Culture. AR and SK-BR-3 cells were obtained from ATCC (Rockville, Md.). SK-BR-3 cells were maintained in phenol red-free custom media (MEM, Earle's salts, 1.5× amino acids, 2× non-essential amino acids, L-glutamine, 1.5× vitamins, Gibco BRL) supplemented with 10% fetal bovine serum (FBS), 2 mM L-glutamine and 20 mg/L gentamycin. JAR cells were maintained in RPMI 1640 medium with 2 mM L-glutamine adjusted to contain 1.5 g/L sodium bicarbonate, 4.5 g/L glucose, 10 mM HEPES, and 1.0 mM sodium pyruvate, 90%; FBS, 10%. Fetal bovine serum was heat inactivated for 30 min in a 56° C. water bath before use. Cell cultures were grown at 37° C., in a humidified atmosphere of 5% CO2 in a Hereaus CO2 incubator. For all experiments, cells were plated in 6 well plates and grown to subconfluency. Before treatment, the media was changed to a defined one containing DMEM/F12 media (Sigma) with 1.0 mg/mL human albumin (OSU Hospital Pharmacy), 5.0 mg/L human transferin and 5.0 mg/L bovine insulin.
(§2) Tritiated water-release assay in JAR and SK-BR-3 cell lines. Measurement of aromatase enzyme activity was based on the tritium water release assay. Cells in six well plates were treated with 0.1% DMSO (control), and inhibitors at the indicated concentrations. After 24 hours, the cells were incubated 3 hours (SK-BR-3 cells) or 1 hour (JAR cells) with fresh media along with 100 nM [1β-^3H]-androst-4-ene-3,17-dione (1 μCi). Subsequently, the reaction mixture was removed, and proteins were precipitated using 10% trichloroacetic acid at 42° C. for 20 min. After a brief centrifugation, the media was extracted three times with an equal amount of chloroform to remove remaining substrate and further treated with dextran-treated charcoal. After centrifugation, a 250-μl aliquot containing the product was counted in 5 ml of liquid scintillation mixture. Results were corrected for blanks and for the cell contents of culture flasks, and results were expressed as picomoles of ^3H2O formed per hour incubation time per million live cells (pmol/h/10^6 cells). To determine the amount of cells in each flask, the cells were lysed and analyzed using the diphenylamine DNA assay adapted to a 96-well plate. IC50 sigmoidal dose-response data were analyzed with Microsoft Excel and the Graphpad Prism (Version 3.0) program.
(§3) Diphenylamine DNA Assay To determine the amount of viable cells in each flask, the cells were lysed with 0.5N NaOH aqueous solution and analyzed using the diphenylamine DNA assay adapted to a 96-well plate. DNA standards (0-30 μg) were prepared using double-stranded DNA reconstituted in PBS and added in triplicates directly to the wells. A uniform cell suspension was prepared from the 6 well plate in 300 μl 0.5N NaOH aqueous solution, and 60 μl of the unknown samples were added in triplicates to separate wells. A solution of 0.16% acetaldehyde in water was prepared and mixed at a 1:5 ratio with perchloric acid (20% vol/vol). This solution (60 μl) was added to each well along with 100 μl of a 4% diphenylamine solution in glacial acetic acid. The plates were incubated at 37° C. for 24 hours. After centrifugation, 100 μl supernatant of each well was transferred to a new 96 well plate, and the OD595 was measured using a microplater reader. The DNA concentration was determined by extrapolation to the standard curve and the amount of cells/well was calculated using the equation: 1 cell≈7 pg DNA.

In data set [4] the test system is aromatase activity in SK-BR-3 breast cancer cells. Description: Tritiated water-release assay in SK-BR-3 cells (additional compounds). In kind it is cell-based, human. As for the experimental part: as §1, with “JAR cells were maintained in RPMI 1640 medium with 2 mM L-glutamine adjusted to contain 1.5 g/L sodium bicarbonate, 4.5 g/L glucose, 10 mM HEPES, and 1.0 mM sodium pyruvate, 90%; FBS, 10%.” left out
as §2
as §3, with “A solution of 0.16% acetaldehyde in water was prepared and mixed at a 1:5 ratio with perchloric acid (20% vol/vol).” left out

On to `CC1CCCCC1Oc1cc([N+](=O)[O-])ccc1NS(C)(=O)=O` (centres unmarked) [Compound 11, N-(2-Methylcyclohexyloxy-4-nitrophenyl)methanesulfonamide], for which the half-maximal inhibitory concentration (IC50) in data set [1] amounted to 1.21 µM. For the same molecule, in data set [2], the “PGE2 production (COX-2 inhibitory activity)” value was “did not show any COX-2 inhibitory activity”.
For the molecule `CN(c1ccc([N+](=O)[O-])cc1OC1CCCC1)S(C)(=O)=O` [Compound 21, N-Methyl-N-(2-cyclopentyloxy-4-nitrophenyl)methanesulfonamide], the melting point lay within 102 to 104 °C. Moreover, the concentration for half-maximal inhibition (IC50) in data set [1] was 0.44 µM. Further, the “PGE2 production (COX-2 inhibitory activity)” value in data set [2] is reported as “did not show any inhibitory activity”.
Regarding `CC1CCCCC1Oc1cc([N+](=O)[O-])ccc1N(C)S(C)(=O)=O` (centres unmarked) [Compound 20, N-Methyl-N-(2-methylcyclohexyloxy-4-nitrophenyl)methanesulfonamide], in data set [1], the concentration for half-maximal inhibition (IC50) is 0.96 µM. Also, the “PGE2 production (COX-2 inhibitory activity)” value in data set [2] was “did not show any inhibitory activity”.
`CS(=O)(=O)Nc1ccc([N+](=O)[O-])cc1OC1CCCC1` [Compound 12, N-(2-Cyclopentyloxy-4-nitrophenyl)methanesulfonamide]: the melting point was 139 to 140 °C. Further, the IC50 in data set [1] came to 0.87 µM. Further, in data set [2], the “PGE2 production (COX-2 inhibitory activity)” value was “significantly decrease in PGE2 production”.
Consider `CS(=O)(=O)Nc1ccc([N+](=O)[O-])cc1OCc1cccc2ccccc12` [Compound 38b, N-[2-(α-naphthylmethoxy) 4-nitrophenyl]methanesulfonamide], for which the melting point is 193 to 195 °C. The “aromatase suppression activity in JAR cells (in words)” value in data set [3] (15 μM) is “inhibited aromatase activity in both JAR cells and SK-BR-3 cells”. Besides, the inhibition at 15 µM in data set [3] is under 50%. Moreover, the “decrease of aromatase activity in SK-BR-3 cells (in words)” value in data set [4] (2.5 μM) is “inhibited aromatase activity in both JAR cells and SK-BR-3 cells”.
As to `CS(=O)(=O)Nc1ccc([N+](=O)[O-])cc1Oc1ccccc1` [Nimesulide, N-(2-phenoxy-4-nitrophenyl)-methanesulfonamide, reference compound], the concentration for half-maximal inhibition (IC50) in data set [4] (dose-response (FIG. 13), read-out: IC50 (μM), suppression of aromatase activity in SK-BR-3 breast cancer cells) is 27 µM.
The molecule `CN(c1ccc([N+](=O)[O-])cc1OCc1cccc2ccccc12)S(C)(=O)=O` [Compound 38c, N-methyl-N-[2-(α-naphthylmethoxy) 4-nitrophenyl]methanesulfonamide] registered a melting point of 163 to 165 °C. In data set [3], the inhibition at 15 µM is under 50%.

The IC50 is the point on the concentration scale where inhibition reaches its midpoint. As usually defined, the melting point is the temperature, or range, at which the solid turns liquid.
